Where a name gives a salt, the structure may show the parent alone. Active and inactive are the calls of the source. No cut-off for these calls is given here.
How the values were obtained:
MCF7 = experiment: cells; format: functional, cell-based; settings: Homo sapiens, MCF7, 144 h
Description: Inhibition of 17-beta estradiol-induced cell proliferation in human MCF7 cells incubated for 6 days by acid red-52 staining based assay

[1] = target: T1, Estrogen-related receptor gamma (Homo sapiens, UniProt P62508)
T1 sequence (P62508 whole entry): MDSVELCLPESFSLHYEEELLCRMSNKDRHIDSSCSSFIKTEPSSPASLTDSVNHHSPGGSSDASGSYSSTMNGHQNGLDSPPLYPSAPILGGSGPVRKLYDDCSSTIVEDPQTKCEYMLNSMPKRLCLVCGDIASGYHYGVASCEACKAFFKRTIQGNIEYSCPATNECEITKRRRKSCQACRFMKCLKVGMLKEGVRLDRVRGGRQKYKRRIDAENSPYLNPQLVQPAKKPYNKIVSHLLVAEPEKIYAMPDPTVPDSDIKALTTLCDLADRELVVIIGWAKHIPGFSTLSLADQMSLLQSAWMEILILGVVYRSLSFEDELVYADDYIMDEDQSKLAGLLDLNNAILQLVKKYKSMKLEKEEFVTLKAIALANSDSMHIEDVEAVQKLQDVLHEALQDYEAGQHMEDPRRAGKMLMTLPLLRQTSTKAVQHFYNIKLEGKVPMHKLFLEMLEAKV
Description: Binding affinity to human ERRgamma

in vitro = settings: human
Description: Cytotoxicity in human MCF7 cells assessed as maximum drug level not causing reduction in cell viability incubated for 6 days by acid red-52 staining based assay

Estrogen receptor [2] = target: T2, Estrogen receptor (Homo sapiens, UniProt P03372)
T2 sequence (P03372 whole entry): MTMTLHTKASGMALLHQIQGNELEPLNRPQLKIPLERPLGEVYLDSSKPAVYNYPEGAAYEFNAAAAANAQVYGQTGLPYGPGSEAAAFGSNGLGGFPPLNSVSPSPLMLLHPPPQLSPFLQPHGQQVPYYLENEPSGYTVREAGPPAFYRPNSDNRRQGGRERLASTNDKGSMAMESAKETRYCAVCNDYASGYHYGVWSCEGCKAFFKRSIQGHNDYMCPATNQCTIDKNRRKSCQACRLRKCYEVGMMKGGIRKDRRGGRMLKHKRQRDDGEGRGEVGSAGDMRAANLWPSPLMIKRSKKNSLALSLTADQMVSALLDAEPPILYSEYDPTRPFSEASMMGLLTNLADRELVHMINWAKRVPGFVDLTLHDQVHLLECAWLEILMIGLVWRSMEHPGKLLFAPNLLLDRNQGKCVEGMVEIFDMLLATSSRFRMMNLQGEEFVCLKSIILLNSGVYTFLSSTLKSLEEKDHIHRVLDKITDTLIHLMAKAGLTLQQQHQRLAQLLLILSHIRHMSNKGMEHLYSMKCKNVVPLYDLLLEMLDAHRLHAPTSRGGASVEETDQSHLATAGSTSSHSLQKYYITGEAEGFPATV
Description: Displacement of [3H]E2 from GST-fused ERalpha-LBD (unknown origin) expressed in Escherichia coli BL21 incubated for 1 hr by liquid scintillation counting method

Estrogen receptor beta [3] = target: T3, Estrogen receptor beta (Homo sapiens, UniProt Q92731)
Description: (§1) Displacement of [3H]E2 from GST-fused ERbeta-LBD (unknown origin) expressed in Escherichia coli BL21 incubated for 1 hr by liquid scintillation counting method

Estrogen receptor [4] = target: T2, Estrogen receptor; remark: listed apart in the source
Description: Antagonist activity at full length ERalpha (unknown origin) expressed in human HeLa cells incubated for 24 hrs by ERE-driven luciferase reporter gene assay

[5] = target: T4, Estrogen receptor (Homo sapiens) (UniProt P03372); experiment: Antagonist activity at full length ERalpha (unknown origin) expressed in human HeLa cells up to 10 uM incubated for 24 hrs by ERE-driven luciferase reporter gene assay; format: cell-based
T4 sequence (whole entry): T2 sequence (P03372 whole entry)

Estrogen receptor beta [6] = target: T3, Estrogen receptor beta; experiment: Antagonist activity at full length ERbeta (unknown origin) expressed in human HeLa cells incubated for 24 hrs by ERE-driven luciferase reporter gene assay
Estrogen receptor beta [7] = target: T3, Estrogen receptor beta; remark: listed apart in the source
Description: as §1

Estrogen receptor [8] = target: T2, Estrogen receptor; remark: listed apart in the source
Description: Agonist activity at full length ERalpha (unknown origin) expressed in human HeLa cells incubated for 24 hrs by ERE-driven luciferase reporter gene assay

Estrogen receptor beta [9] = target: T3, Estrogen receptor beta; experiment: Antagonist activity at full length ERbeta (unknown origin) expressed in human HeLa cells assessed as reduction in 17-beta estradiol-induced response at 10^-5M incubated for 24 hrs by ERE-driven luciferase reporter gene assay relative to untreated control; format: cell-based

T3 sequence (Q92731 whole entry): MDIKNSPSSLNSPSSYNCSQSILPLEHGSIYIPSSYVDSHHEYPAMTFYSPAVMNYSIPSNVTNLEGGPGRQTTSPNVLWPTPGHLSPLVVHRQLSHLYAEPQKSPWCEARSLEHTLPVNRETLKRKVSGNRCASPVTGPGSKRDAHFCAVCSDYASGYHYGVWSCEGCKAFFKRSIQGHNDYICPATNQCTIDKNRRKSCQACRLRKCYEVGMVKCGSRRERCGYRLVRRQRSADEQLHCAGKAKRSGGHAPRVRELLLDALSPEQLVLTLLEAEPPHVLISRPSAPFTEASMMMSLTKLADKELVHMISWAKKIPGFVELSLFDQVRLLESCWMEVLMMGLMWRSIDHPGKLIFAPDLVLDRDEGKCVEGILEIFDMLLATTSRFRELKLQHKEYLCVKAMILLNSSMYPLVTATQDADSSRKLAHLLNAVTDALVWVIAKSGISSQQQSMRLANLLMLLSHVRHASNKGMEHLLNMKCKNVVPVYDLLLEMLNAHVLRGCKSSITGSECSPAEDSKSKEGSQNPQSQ

Compound	IC50 (MCF7) [nM]	IC50 [1]	MNTC at 144 h (in vitro; MCF7 cells) [µM]	IC50 (Estrogen receptor [2]) [nM]	IC50 (Estrogen receptor beta [7]) [nM]	other results
Cl.FC(F)(F)c1ccc2cc3nc4ccccc4c(-c4ccccc4)c3cc2c1	9240	Not Active	> 10	3510	–	IC50 (Estrogen receptor beta [3]): Not Active; IC50 (Estrogen receptor [4]): 5340 nM
FC(F)(F)c1ccc(-c2c3ccccc3nc3cc4ccc(C(F)(F)F)cc4cc23)cc1	9240	–	> 10	–	–	–
FC(F)(F)c1ccc2nc3cc4ccccc4cc3c(-c3ccccc3)c2c1	–	–	> 10	–	–	–
Cl.Oc1ccc2c(-c3ccccc3)c3cc4ccccc4cc3nc2c1	–	Not Active	> 1	294	306	inhibition [5]: inactive; inhibition (Estrogen receptor beta [6]): Active; EC50 (Estrogen receptor [8]): 7400 nM
COc1ccc2cc3nc4ccccc4c(-c4ccccc4)c3cc2c1	–	–	> 10	–	–	–
Cl.Clc1ccc2c(-c3ccccc3)c3cc4ccccc4cc3nc2c1	19600	Not Active	> 100	1650	1980	–
Cl.Oc1cccc2c(-c3ccccc3)c3cc4ccccc4cc3nc12	–	Not Active	> 10	1080	939	inhibition [5]: inactive; EC50 (Estrogen receptor [8]): 1330 nM
COc1ccc2c(-c3ccc(C(F)(F)F)cc3)c3cc4cc(C(F)(F)F)ccc4cc3nc2c1	–	–	> 10	–	–	–
Cl.FC(F)(F)c1cccc2c(-c3ccccc3)c3cc4ccccc4cc3nc12	3980	Not Active	> 10	2650	–	IC50 (Estrogen receptor beta [3]): Not Active
COc1ccc2c(-c3ccccc3)c3cc4ccccc4cc3nc2c1	–	–	> 1	–	–	–
CC/C(=C(\c1ccccc1)c1ccc(OCCN(C)C)cc1)c1ccccc1 [TAMOXIFEN CITRATE]	–	–	–	–	–	MNTC at 144 h (in vitro; mcf7): > 10 µM
c1ccc(-c2c3ccccc3nc3nc4ccccc4cc23)cc1	951	–	–	–	–	–
COc1cccc2c(-c3ccccc3)c3cc4ccccc4cc3nc12	–	–	> 10	–	–	–
Cl.Oc1ccc2cc3nc4ccccc4c(-c4ccccc4)c3cc2c1	–	Not Active	> 10	169	154	inhibition [5]: inactive; fold change (FC) (Estrogen receptor beta [9]): 6; inhibition (Estrogen receptor beta [6]): Active; EC50 (Estrogen receptor [8]): 1440 nM
Cl.Clc1c2ccccc2cc2c(-c3ccccc3)c3ccccc3nc12	9070	Not Active	> 10	1680	2520	–
Cl.c1ccc(-c2c3ccccc3nc3cc4ccccc4cc23)cc1	4950	Not Active	> 10	915	1690	IC50 (Estrogen receptor [4]): 9390 nM
N#Cc1c2ccccc2cc2c(-c3ccccc3)c3ccccc3nc12	–	–	> 100	–	–	–
FC(F)(F)c1ccc(-c2c3ccc(C(F)(F)F)cc3nc3cc4ccc(C(F)(F)F)cc4cc23)cc1	–	–	> 1	–	–	–
c1ccc2nc3ccccc3cc2c1	–	–	> 10	–	–	–
c1ccc(-c2c3ccccc3nc3ccccc23)cc1	–	–	> 100	–	–	–
